Laboratory results published in patent US8501729B2 (Albany Molecular Research, Inc., priority 2008, dated 2013).
Read-outs that look alike come from different tables or passages of the source.

Tests used:
[1] = biological target: human 5-HT3 receptor (Homo sapiens (Human), UniProt P46098); assay: radioligand binding assay (SPA format), [9-methyl-3H]BRL-43694 displacement
Method: The relative affinity of the various compounds for the human 5-HT3 receptor was measured in a radioligand binding assay, using a scintillation proximity assay (SPA) format. Test compounds were dissolved to 10 mM in 100% DMSO, then serially diluted at 10× assay concentrations in 100% DMSO in 96-well polypropylene plates and further diluted to 4× assay concentrations with the assay buffer. […] Binding reactions were set up in wells of PicoPlates-96 (Perkin Elmer, Waltham, Mass.) by adding consecutively 50 μL, of each competing compound or buffer, SPA beads, the radioligand and 5-HT3 receptor membranes. After an overnight incubation at room temperature on a Nutator mixer, plates were centrifuged for 15 min at 1,500 rpm, followed by incubation in the dark for 30 min. Radioactivity was counted in the TopCount microplate counter (Perkin Elmer) for 5 min. […] Specific binding was determined by subtracting nonspecific binding from total binding. All experiments were performed in duplicate using ten concentrations of competing ligand, with ondansetron included as a control in every run. IC50 values were determined from specific binding data using XLfit4.1 curve fitting software from IDBS Ltd. The inhibition constant (Ki) was calculated from the Cheng Prusoff equation: (Ki=IC50/(1+(L/KD)), where L=concentration of radioligand in the assay, and KD=affinity of the radioligand for the receptor.

[2] = biological target: recombinant human 5-HT3A receptors (Homo sapiens (Human), UniProt P46098); assay: agonist activity (Ca2+ fluorescence, Fluo-4) in HEK293 cells expressing the h5-HT3A receptor subunit; assay type: cell-based; settings: for activation at 10 µM: HEK293, read-out: HEK293 h5-HT3A % agonist response
Method: Human embryonic kidney (HEK293) cells expressing the h5-HT3A receptor subunit were seeded directly into poly-D-lysine coated, black-walled, clear bottomed, 96 well plates with approximately 1×10^5 cells per well. After 48 hrs incubation in DMEM growth media (100 μL), cells were washed twice (each 200 μL) in Hank's balanced salt solution (Invitrogen) before incubation (1 hr) with Fluo-4 acetoxymethyl (AM) ester (100 μL, 2.5 μM; Molecular Probes). Cells were washed twice (each 200 μL) in Hank's balanced salt solution and incubated for a further 30 mins in Hank's balanced salt solution (100 μL) prior to assay (25° C.). Alteration in [Ca^2+], was measured (relative fluorescence units [RFU]) using a Flexstation (excitation 488 nm and emission 515 nm; frequency of recording 3 sec). After recording for at least 80 sec, vehicle (Hank's balanced salt solution) or drug was automatically administered to the well (50 μL). Baseline was calculated from the 5 data points immediately prior to the first drug administration and the maximum response was that achieved over the 240 sec following drug administration. In all experiments the muscarinic receptor agonist carbachol (1 mM) was added 240 sec after the test drug administration.

[3] = biological target: 5-HT3 receptors (Mus musculus (Mouse), UniProt P23979); assay: von Bezold-Jarisch model in vivo: inhibition of 5-HT induced bradycardia; settings: 60 min before 5-HT 0.1 mg/kg IV, highest oral dose tested
Method: This is a well characterized and widely used model to assess 5-HT3 receptor function in vivo (King et al., 5-Hydroxtryptamine-3 Receptor Antagonists, CRC Press, pp. 74-75 (1993), which is hereby incorporated by reference in its entirety). Certain compounds (Table 1) were evaluated for their ability to inhibit serotonin induced bradycardia in vivo in the mouse (Saxena et al., Arch. Int. Pharmacodyn., 277:235-252 (1985), which is hereby incorporated by reference in its entirety). Test substances and vehicle [2% Tween 80] were each administered orally to a group of 5 male CD-1(Crl.) mice each weighing 24±2 g. A dosing volume of 10 mL/kg was used. Sixty minutes later, 5-HT (0.1 mg/kg IV)-induced bradycardia was recorded in urethane (2250 mg/kg IP, given 10 minutes before 5-HT)-anesthetized animals.

[4] = human 5-HT3 receptor membranes, 10 nM [3H]BRL-43694, Ki from Cheng Prusoff equation, read-out: h5-HT3A Ki

Sequence of recombinant human 5-HT3A receptors (P46098 24-478): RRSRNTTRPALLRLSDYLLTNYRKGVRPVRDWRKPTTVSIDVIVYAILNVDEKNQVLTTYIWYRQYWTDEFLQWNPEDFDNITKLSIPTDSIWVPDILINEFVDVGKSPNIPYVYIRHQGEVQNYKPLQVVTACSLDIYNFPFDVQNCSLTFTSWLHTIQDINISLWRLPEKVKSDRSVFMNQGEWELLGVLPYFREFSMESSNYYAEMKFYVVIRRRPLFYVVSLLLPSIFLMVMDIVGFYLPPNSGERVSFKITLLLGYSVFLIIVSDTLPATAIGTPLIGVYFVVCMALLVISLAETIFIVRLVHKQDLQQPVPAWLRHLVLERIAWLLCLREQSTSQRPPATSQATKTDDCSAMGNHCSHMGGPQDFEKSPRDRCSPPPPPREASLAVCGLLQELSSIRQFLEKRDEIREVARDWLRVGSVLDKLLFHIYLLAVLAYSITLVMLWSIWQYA
Sequence of human 5-HT3 receptor (P46098 24-478): as above
Sequence of 5-HT3 receptors (P23979 24-489): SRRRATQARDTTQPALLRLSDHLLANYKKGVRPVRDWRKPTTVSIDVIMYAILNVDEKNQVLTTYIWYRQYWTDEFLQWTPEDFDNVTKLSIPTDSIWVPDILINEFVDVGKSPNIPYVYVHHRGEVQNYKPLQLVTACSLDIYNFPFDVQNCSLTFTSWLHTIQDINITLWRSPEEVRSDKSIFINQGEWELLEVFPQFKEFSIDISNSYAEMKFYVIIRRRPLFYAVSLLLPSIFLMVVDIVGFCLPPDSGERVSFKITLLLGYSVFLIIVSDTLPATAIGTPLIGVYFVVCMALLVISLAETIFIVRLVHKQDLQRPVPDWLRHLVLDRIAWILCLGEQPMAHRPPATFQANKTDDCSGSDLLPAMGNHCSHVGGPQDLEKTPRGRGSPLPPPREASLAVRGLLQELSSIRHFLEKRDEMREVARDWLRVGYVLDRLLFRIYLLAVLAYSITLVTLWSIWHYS

`CC(C)Cn1nc2c3c(cccc31)C(=O)N([C@@H]1CN3CCC1CC3)C2` [Example 9] was tested, and the Ki [1] was 2 nM.

Work on `CCn1nc2c3c(cccc31)C(=O)N([C@H]1CN3CCC1CC3)C2` [Example 14, (R)-2-Ethyl-7-(quinuclidin-3-yl)-7,8-dihydropyrazolo[3,4,5-de]isoquinolin-6(2H)-one] yielded an activation at 10 µM [2] of 4%.

Work on `CCn1nc2c3c(cccc31)C(=O)N([C@@H]1CN3CCC1CC3)C2` [Example 8, (S)-2-ethyl-7-(quinuclidin-3-yl)-7,8-dihydropyrazolo[3,4,5-de]isoquinolin-6(2H)-one] yielded a Ki [1] of 1 nM.

With `CN1C2CCC1CC(N1Cc3nn(C)c4cccc(c34)C1=O)C2` (stereo not drawn) [Example 38, Endo-2-methyl-7-(8-methyl-8-azabicyclo[3.2.1]octan-3-yl)-7,8-dihydropyrazolo[3,4,5-de]isoquinolin-6(2H)-one] the Ki [1] was 59 nM.

Work on `COc1ccc(-n2nc3c4c(cccc42)C(=O)N([C@H]2CN4CCC2CC4)C3)cc1` [Example 20] yielded a Ki [1] of 57 nM.

With `O=C1c2cccc3c2c(cn3Cc2ccccc2)CCN1[C@@H]1CN2CCC1CC2` [Example 32, (S)-6-benzyl-2-(quinuclidin-3-yl)-2,3,4,6-tetrahydro-1H-azepino[5,4,3-cd]indol-1-one] the Ki [1, 4] was 1 nM.

In the case of `O=C1c2cccc3c2c(cn3-c2ccc(F)cc2)CCN1[C@H]1CN2CCC1CC2` [Example 36, (R)-6-(4-fluorophenyl)-2-(quinuclidin-3-yl)-2,3,4,6-tetrahydro-1H-azepino[5,4,3-cd]indol-1-one], the inhibition at 10 µM ([1]; 10 μM, read-out: h5-HT3A inhibition @ 10 μM) is reported as 49%.

`Cn1cc2c3c(cccc31)C(=O)N([C@H]1CN3CCC1CC3)CC2` [Example 34, (R)-6-methyl-2-(quinuclidin-3-yl)-2,3,4,6-tetrahydro-1H-azepino[5,4,3-cd]indol-1-one] was tested, and the Ki [1, 4] was 8 nM, the “Inhibition of 5-HT Induced Bradycardia in Mice” value (shortened to “Inhibition … in Mice”) ([3]; 3 mg/kg oral) was 88% @ 3 mg/kg and the activation at 10 µM [2] was 13%.

`CN1C2CCCC1CC(N1Cc3nn(C)c4cccc(c34)C1=O)C2` (stereo not drawn) [Example 22, 7-(Endo-N-(9-methyl-9-azabicyclo[3.3.1]nonan-3-yl))-2-methyl-7,8-dihydropyrazolo[3,4,5-de]isoquinolin-6(2H)-one] showed a Ki [1] of 34 nM.

With `Cc1[nH]cnc1CN1CCc2c(c3ccccc3n2C)C1=O` [Alosetron, reference compound] the “Inhibition … in Mice” value ([3]; 1 mg/kg oral) was 95% @ 1 mg/kg.

`O=C1c2cccc3c2c(nn3-c2ccc(Cl)cc2)CN1[C@H]1CN2CCC1CC2` [Example 19] showed a Ki [1] of 68 nM.

In the case of `CN1CC2CCCC1CC(N1Cc3cn(C)c4cccc(c34)C1=O)C2` (stereo not drawn) [Example 5, Endo-5-methyl-2-(9-methyl-9-azabicyclo[3.3.1]nonan-3-yl)-2,3-dihydropyrrolo[4,3,2-de]isoquinolin-1(5H)-one], the Ki [1, 4] is reported as 13 nM.

`Cn1cc2c3c(cccc31)C(=O)N([C@@H]1CN3CCC1CC3)C2` [Example 4, (S)-5-Methyl-2-(quinuclidin-8-yl)-2,3-dihydropyrrolo[4,3,2-de]isoquinolin-1(5H)-one] gave a Ki [1, 4] of 1 nM.

Molecule `O=C1c2cccc3[nH]cc(c23)CCN1[C@H]1CN2CCC1CC2` [Example 33, (R)-2-(Quinuclidin-3-yl)-2,3,4,6-tetrahydro-1H-azepino[5,4,3-cd]indol-1-one] has a Ki [1, 4] of 49 nM and an activation at 10 µM [2] of 14%.

Work on `CN1C2CCCC1CC(N1CCc3cn(C)c4cccc(c34)C1=O)C2` (stereo not drawn) [Example 37, Endo-6-methyl-2-(9-methyl-9-azabicyclo[3.3.1]nonan-3-yl)-2,3,4,6-tetrahydro-1H-azepino[5,4,3-cd]indol-1-one] yielded a Ki [1, 4] of 267 nM.

For `O=C1c2cc(Br)cc3[nH]nc(c23)CN1[C@H]1CN2CCC1CC2` [Example 21], the Ki [1] was 1 nM.

`Cn1nc2c3c(cc(F)cc31)C(=O)N([C@H]1CN3CCC1CC3)C2` [Example 13] was tested, and the activation at 10 µM [2] was 6%.

With `O=C1c2cccc3c2c(cn3Cc2ccccc2)CCN1[C@H]1CN2CCC1CC2` [Example 35, (R)-6-benzyl-2-(quinuclidin-3-yl)-2,3,4,6-tetrahydro-1H-azepino[5,4,3-cd]indol-1-one] the Ki [1, 4] was 13 nM.

With `Cn1cc2c3c(cccc31)C(=O)N([C@@H]1CN3CCC1CC3)CC2` [Example 31, (S)-6-methyl-2-(quinuclidin-3-yl)-2,3,4,6-tetrahydro-1H-azepino[5,4,3-cd]indol-1-one] the Ki [1, 4] was 1 nM and the activation at 10 µM [2] was 5%.

With `O=C1c2cccc3c2c(nn3Cc2ccccc2)CN1[C@H]1CN2CCC1CC2` [Example 17] the Ki [1] was 5 nM.

Molecule `O=C1c2cccc3[nH]nc(c23)CN1[C@H]1CN2CCC1CC2` [Example 16, (R)-7-(Quinuclidin-3-yl)-7,8-dihydropyrazolo[3,4,5-de]isoquinolin-6(2H)-one] has an activation at 10 µM [2] of 35%.

Molecule `CC(C)n1nc2c3c(cccc31)C(=O)N([C@H]1CN3CCC1CC3)C2` [Example 15, (R)-2-Isopropyl-7-(quinuclidin-3-yl)-7,8-dihydropyrazolo[3,4,5-de]isoquinolin-6(2H)-one] has an activation at 10 µM [2] of 3%.

In the case of `O=C1c2cccc3[nH]cc(c23)CCN1[C@@H]1CN2CCC1CC2` [Example 29, (S)-2-(Quinuclidin-3-yl)-2,3,4,6-tetrahydro-1H-azepino[5,4,3-cd]indol-1-one], the Ki [1, 4] is reported as 3 nM, the “Inhibition … in Mice” value ([3]; 1 mg/kg oral) is reported as 94% @ 1 mg/kg and the “HEK293 h5-HT3A % agonist response” value ([2]; at 10 μM, normalized to the response of 5-HT (100% at 3 μM), NR = no response) is reported as 17%.

`Cn1nc2c3c(cccc31)C(=O)N([C@@H]1CN3CCC1CC3)C2` [Example 6, (S)-2-Methyl-7-(quinuclidin-3-yl)-7,8-dihydropyrazolo[3,4,5-de]isoquinolin-6(2H)-one] gave a Ki [1] of 1 nM.

`Cn1nc2c3c(cccc31)C(=O)N([C@H]1CN3CCC1CC3)C2` [Example 12, (R)-2-Methyl-7-(quinuclidin-3-yl)-7,8-dihydropyrazolo[3,4,5-de]isoquinolin-6(2H)-one] was tested, and the Ki [1] was 2 nM and the activation at 10 µM [2] was 6%.

In the case of `Cn1cc(C(=O)[C@@H]2CCc3nc[nH]c3C2)c2ccccc21` [Ramosetron, reference compound], the Ki [1, 4] is reported as 0.06 nM and the “Inhibition … in Mice” value ([3]; 0.1 mg/kg oral) is reported as 77% @ 0.1 mg/kg.
